According to the supplement of paper PMC12463676, “Small-molecule dissolution of stress granules by redox modulation benefits ALS models” (Nature Chemical Biology, 2025):

Assays:
lipoamide = compound: NC(=O)CCCCC1CCSS1 [lipoamide]; experiment: thermal stability z-score vs DMSO; higher = more thermally stabilized by treatment; conditions: HeLa, lipoamide concentration 100 µM
Protocol: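 Cellular thermal proteome profiling in HeLa cells. Cells were treated with 100 µM lipoamide for 1 h, with or without 1 mM arsenate for a further 1 h, then heated to ten temperatures (37-66.3 °C), and soluble protein was quantified by TMT mass spectrometry relative to 0.1% DMSO controls. The thermal stability score (sum of log2 fold changes minus the abundance score) was transformed to a z-score; mean of n = 3 experiments.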

potassium arsenate = compound: O=[As]([O-])(O)O.[K+] [potassium arsenate]; experiment: as above; conditions: HeLa; arsenate concentration 1 mM
Protocol: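 Cellular thermal proteome profiling in HeLa cells treated with 1 mM arsenate for 1 h (DMSO pretreatment), heated to ten temperatures (37-66.3 °C). Soluble protein was quantified by TMT mass spectrometry relative to DMSO controls; the thermal stability score was transformed to a z-score; mean of n = 3 experiments.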

[1] = arsenate co-treatment: 1 mM arsenate 1 h
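Further: each temperature applied for 3 min, abundance score taken as mean log2 fold change at the two lowest temperatures, z-score obtained by mean subtraction and division by SD.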

Sequence of UniProt Q14697 (Q14697 whole entry): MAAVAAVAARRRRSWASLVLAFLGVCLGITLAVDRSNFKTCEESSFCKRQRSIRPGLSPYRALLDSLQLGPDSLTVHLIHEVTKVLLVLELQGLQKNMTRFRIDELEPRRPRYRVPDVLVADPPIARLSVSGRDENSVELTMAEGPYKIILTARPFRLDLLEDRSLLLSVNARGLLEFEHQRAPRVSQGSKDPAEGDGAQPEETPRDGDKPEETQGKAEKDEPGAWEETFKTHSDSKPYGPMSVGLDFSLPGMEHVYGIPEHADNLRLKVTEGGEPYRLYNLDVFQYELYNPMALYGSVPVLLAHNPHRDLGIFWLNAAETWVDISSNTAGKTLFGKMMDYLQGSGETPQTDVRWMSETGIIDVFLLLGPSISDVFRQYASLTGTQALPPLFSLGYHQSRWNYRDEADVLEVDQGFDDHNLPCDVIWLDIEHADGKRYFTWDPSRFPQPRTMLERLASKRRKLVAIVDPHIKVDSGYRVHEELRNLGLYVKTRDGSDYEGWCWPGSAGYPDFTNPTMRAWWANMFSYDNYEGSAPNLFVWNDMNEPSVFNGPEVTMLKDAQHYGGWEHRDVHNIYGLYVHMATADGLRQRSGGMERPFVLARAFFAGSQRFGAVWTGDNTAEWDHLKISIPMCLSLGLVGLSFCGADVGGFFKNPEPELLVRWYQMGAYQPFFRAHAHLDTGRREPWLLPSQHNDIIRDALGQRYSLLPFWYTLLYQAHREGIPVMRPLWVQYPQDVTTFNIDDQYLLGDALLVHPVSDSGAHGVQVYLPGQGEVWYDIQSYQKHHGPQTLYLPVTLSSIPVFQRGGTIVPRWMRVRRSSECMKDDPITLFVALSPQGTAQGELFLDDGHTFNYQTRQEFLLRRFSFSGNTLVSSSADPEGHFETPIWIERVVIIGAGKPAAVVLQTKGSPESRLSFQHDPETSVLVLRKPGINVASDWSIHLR
Sequence of UniProt Q13555 (Q13555 whole entry): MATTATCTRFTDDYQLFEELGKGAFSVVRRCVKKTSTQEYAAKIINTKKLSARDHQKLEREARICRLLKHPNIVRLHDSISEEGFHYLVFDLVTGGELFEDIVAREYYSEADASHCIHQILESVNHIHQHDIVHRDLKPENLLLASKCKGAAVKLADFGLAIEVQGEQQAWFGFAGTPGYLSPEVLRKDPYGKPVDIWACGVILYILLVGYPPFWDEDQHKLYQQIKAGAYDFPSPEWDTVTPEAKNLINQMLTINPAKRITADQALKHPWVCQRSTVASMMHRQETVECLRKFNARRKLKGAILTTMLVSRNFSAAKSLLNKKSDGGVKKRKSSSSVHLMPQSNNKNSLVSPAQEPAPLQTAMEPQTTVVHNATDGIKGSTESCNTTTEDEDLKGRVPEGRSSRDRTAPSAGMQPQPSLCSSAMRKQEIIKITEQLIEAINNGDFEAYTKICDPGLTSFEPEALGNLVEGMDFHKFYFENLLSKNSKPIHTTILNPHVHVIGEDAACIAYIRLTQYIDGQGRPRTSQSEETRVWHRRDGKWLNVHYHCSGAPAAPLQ
Sequence of UniProt Q96AG3 (Q96AG3 whole entry): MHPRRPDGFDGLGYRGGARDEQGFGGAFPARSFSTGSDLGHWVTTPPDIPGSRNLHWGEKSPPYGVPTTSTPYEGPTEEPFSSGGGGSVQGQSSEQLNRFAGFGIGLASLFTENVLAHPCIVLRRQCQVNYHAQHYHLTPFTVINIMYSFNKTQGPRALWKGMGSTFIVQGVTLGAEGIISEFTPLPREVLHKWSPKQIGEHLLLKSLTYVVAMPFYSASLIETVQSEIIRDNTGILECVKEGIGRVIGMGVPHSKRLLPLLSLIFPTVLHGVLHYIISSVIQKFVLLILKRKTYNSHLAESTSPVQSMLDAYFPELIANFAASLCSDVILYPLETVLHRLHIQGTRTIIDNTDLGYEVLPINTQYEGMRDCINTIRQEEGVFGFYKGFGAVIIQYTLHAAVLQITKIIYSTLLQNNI
Sequence of UniProt Q13686 (Q13686 whole entry): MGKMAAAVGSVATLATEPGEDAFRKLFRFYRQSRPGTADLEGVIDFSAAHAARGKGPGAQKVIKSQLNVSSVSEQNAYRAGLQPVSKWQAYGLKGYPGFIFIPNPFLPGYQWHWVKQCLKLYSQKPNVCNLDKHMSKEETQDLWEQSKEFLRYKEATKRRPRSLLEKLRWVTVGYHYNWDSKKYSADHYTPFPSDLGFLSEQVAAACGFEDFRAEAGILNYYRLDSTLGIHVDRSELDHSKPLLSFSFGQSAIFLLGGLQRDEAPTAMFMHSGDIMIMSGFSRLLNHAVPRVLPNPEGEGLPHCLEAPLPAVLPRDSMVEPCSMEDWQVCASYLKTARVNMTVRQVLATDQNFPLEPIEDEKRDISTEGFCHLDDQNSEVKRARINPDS
Sequence of UniProt A8MTT3 (A8MTT3 whole entry): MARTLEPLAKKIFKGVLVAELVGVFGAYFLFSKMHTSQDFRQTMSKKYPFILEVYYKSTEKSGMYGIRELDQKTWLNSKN
Sequence of UniProt Q9BQD7 (Q9BQD7 whole entry): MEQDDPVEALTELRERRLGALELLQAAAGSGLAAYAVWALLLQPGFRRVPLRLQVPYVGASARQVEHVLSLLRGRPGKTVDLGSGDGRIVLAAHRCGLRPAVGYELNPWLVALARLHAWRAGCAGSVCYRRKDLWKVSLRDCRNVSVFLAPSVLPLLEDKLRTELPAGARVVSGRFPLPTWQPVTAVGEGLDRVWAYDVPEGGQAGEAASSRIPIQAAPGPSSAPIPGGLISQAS
Sequence of UniProt Q8N2M8 (Q8N2M8 whole entry): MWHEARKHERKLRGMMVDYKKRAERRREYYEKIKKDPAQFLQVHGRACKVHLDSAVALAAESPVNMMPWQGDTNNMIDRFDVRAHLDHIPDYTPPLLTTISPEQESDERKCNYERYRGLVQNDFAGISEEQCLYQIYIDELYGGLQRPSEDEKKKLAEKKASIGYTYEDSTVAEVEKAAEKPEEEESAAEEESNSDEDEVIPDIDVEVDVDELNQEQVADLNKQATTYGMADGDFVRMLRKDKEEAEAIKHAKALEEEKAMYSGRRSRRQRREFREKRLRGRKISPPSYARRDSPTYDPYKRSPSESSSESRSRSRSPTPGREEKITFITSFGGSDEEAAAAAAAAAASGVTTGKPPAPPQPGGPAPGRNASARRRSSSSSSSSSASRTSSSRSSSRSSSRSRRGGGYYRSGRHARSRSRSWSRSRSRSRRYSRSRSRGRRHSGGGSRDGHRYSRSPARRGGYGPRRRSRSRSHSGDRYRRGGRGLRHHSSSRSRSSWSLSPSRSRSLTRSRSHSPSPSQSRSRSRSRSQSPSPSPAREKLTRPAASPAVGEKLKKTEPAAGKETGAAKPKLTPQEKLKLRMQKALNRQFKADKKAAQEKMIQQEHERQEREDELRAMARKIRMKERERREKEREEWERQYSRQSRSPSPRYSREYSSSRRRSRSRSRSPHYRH
Sequence of UniProt P07948 (P07948 whole entry, looked up): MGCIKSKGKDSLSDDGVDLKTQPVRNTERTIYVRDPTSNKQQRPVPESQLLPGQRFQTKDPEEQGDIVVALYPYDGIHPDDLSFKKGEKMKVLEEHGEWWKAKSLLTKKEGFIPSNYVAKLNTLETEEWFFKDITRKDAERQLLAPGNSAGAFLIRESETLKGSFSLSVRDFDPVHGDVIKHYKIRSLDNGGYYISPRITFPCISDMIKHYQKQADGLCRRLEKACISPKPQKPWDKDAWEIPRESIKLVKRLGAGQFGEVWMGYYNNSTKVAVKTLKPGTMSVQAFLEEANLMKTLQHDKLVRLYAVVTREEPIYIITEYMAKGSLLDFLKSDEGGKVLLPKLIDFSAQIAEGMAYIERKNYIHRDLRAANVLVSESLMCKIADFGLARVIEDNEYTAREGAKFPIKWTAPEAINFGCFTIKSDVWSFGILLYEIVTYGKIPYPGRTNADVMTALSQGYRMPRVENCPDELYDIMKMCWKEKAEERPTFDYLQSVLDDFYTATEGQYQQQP
Sequence of UniProt Q8TF64 (Q8TF64 whole entry): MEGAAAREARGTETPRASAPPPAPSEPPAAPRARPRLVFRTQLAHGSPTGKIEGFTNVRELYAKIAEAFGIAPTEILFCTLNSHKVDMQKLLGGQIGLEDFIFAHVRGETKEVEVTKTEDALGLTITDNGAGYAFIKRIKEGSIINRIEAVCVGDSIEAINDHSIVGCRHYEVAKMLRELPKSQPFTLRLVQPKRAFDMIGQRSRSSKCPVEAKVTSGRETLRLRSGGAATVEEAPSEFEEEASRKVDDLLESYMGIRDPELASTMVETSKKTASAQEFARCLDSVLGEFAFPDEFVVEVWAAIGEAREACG
Sequence of UniProt P67812 (P67812 whole entry): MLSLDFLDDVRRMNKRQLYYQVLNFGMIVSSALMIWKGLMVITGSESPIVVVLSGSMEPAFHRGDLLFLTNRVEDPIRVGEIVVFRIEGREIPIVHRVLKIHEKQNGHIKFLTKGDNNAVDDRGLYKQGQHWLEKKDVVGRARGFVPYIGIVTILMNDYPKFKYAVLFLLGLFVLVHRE
Sequence of UniProt Q9NSU2 (Q9NSU2 whole entry): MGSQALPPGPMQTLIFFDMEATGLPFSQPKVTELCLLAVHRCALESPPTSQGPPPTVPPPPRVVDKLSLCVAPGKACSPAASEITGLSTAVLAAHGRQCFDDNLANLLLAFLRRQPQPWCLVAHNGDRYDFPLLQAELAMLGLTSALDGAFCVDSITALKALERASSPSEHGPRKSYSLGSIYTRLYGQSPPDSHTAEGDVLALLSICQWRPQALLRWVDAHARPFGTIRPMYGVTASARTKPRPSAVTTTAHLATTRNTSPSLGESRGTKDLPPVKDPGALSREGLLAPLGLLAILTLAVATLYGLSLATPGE
Sequence of UniProt Q9BRA2 (Q9BRA2 whole entry): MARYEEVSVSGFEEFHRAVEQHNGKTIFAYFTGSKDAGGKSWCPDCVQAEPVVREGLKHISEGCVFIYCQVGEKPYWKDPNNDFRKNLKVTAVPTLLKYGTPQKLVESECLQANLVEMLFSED
Sequence of UniProt O43768 (O43768 whole entry): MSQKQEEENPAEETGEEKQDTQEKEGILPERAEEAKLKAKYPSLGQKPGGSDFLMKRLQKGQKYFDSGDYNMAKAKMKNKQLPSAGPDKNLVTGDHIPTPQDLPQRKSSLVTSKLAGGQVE

With FNBP4 (UniProt Q8N3X1) the thermal stability z-score (lipoamide; [1]) was 0.826, the thermal stability z-score (lipoamide; arsenate co-treatment: none) was 1.2 and the thermal stability z-score (potassium arsenate) was -0.51.

With ENSA (UniProt O43768) the thermal stability z-score (lipoamide; [1]) was 0.841, the thermal stability z-score (lipoamide; arsenate co-treatment: none) was 0.567 and the thermal stability z-score (potassium arsenate) was 0.481.

With COMT (UniProt P21964) the thermal stability z-score (lipoamide; [1]) was 0.121, the thermal stability z-score (lipoamide; arsenate co-treatment: none) was 0.102 and the thermal stability z-score (potassium arsenate) was -0.525.

LSM4 (UniProt Q9Y4Z0) gave a thermal stability z-score (lipoamide; [1]) of 0.426, a thermal stability z-score (lipoamide; arsenate co-treatment: none) of 0.265 and a thermal stability z-score (potassium arsenate) of 0.216.

PYROXD1 (UniProt Q8WU10) gave a thermal stability z-score (lipoamide; [1]) of 0.569, a thermal stability z-score (lipoamide; arsenate co-treatment: none) of 0.443 and a thermal stability z-score (potassium arsenate) of -1.15.

Work on TAX1BP1 (UniProt Q86VP1) yielded a thermal stability z-score (lipoamide; [1]) of -0.152, a thermal stability z-score (lipoamide; arsenate co-treatment: none) of 0.411 and a thermal stability z-score (potassium arsenate) of 0.997.

LRRC59 (UniProt Q96AG4) gave a thermal stability z-score (lipoamide; [1]) of -0.768, a thermal stability z-score (lipoamide; arsenate co-treatment: none) of -0.195 and a thermal stability z-score (potassium arsenate) of -1.86.

ATP11B (UniProt Q9Y2G3) was tested, and the thermal stability z-score (lipoamide; [1]) was 0.0989, the thermal stability z-score (lipoamide; arsenate co-treatment: none) was -0.588 and the thermal stability z-score (potassium arsenate) was -1.03.

MCCC2 (UniProt Q9HCC0) gave a thermal stability z-score (lipoamide; [1]) of 0.322, a thermal stability z-score (lipoamide; arsenate co-treatment: none) of 0.156 and a thermal stability z-score (potassium arsenate) of -0.197.

GIPC3 (UniProt Q8TF64) was tested, and the thermal stability z-score (lipoamide; [1]) was -0.481, the thermal stability z-score (lipoamide; arsenate co-treatment: none) was -0.0967 and the thermal stability z-score (potassium arsenate) was -0.214.

With EIF3C (UniProt Q99613) the thermal stability z-score (lipoamide; [1]) was -0.304, the thermal stability z-score (lipoamide; arsenate co-treatment: none) was 0.183 and the thermal stability z-score (potassium arsenate) was 0.498.

Work on RIPK1 (UniProt Q13546) yielded a thermal stability z-score (lipoamide; [1]) of -0.595, a thermal stability z-score (lipoamide; arsenate co-treatment: none) of -1.03 and a thermal stability z-score (potassium arsenate) of 0.39.

NDUFS2 (UniProt O75306) was tested, and the thermal stability z-score (lipoamide; [1]) was -0.481, the thermal stability z-score (lipoamide; arsenate co-treatment: none) was -0.617 and the thermal stability z-score (potassium arsenate) was -0.577.

In the case of DDT (UniProt P30046), the thermal stability z-score (lipoamide; [1]) is reported as -0.198, the thermal stability z-score (lipoamide; arsenate co-treatment: none) is reported as 0.134 and the thermal stability z-score (potassium arsenate) is reported as 0.0872.

Work on FAM173A (UniProt Q9BQD7) yielded a thermal stability z-score (lipoamide; [1]) of -0.403, a thermal stability z-score (lipoamide; arsenate co-treatment: none) of -0.6 and a thermal stability z-score (potassium arsenate) of -0.445.

Work on SLC25A46 (UniProt Q96AG3) yielded a thermal stability z-score (lipoamide; [1]) of -0.105, a thermal stability z-score (lipoamide; arsenate co-treatment: none) of 0.322 and a thermal stability z-score (potassium arsenate) of 0.109.

B4GALT1 (UniProt P15291) was tested, and the thermal stability z-score (lipoamide; [1]) was -0.454, the thermal stability z-score (lipoamide; arsenate co-treatment: none) was -0.565 and the thermal stability z-score (potassium arsenate) was 0.0478.

Target GANAB (UniProt Q14697) has a thermal stability z-score (lipoamide; [1]) of -3.91, a thermal stability z-score (lipoamide; arsenate co-treatment: none) of -3.13 and a thermal stability z-score (potassium arsenate) of 0.696.

DYRK1A (UniProt Q13627) was tested, and the thermal stability z-score (lipoamide; [1]) was -0.118, the thermal stability z-score (lipoamide; arsenate co-treatment: none) was -0.0216 and the thermal stability z-score (potassium arsenate) was 0.54.

With TREX1 (UniProt Q9NSU2) the thermal stability z-score (lipoamide; [1]) was -0.5, the thermal stability z-score (lipoamide; arsenate co-treatment: none) was -0.0932 and the thermal stability z-score (potassium arsenate) was -2.07.

ARGLU1 (UniProt Q9NWB6) was tested, and the thermal stability z-score (lipoamide; [1]) was 0.406, the thermal stability z-score (lipoamide; arsenate co-treatment: none) was 0.211 and the thermal stability z-score (potassium arsenate) was -0.658.

HSPB1 (UniProt P04792) showed a thermal stability z-score (lipoamide; [1]) of -1.04, a thermal stability z-score (lipoamide; arsenate co-treatment: none) of -0.459 and a thermal stability z-score (potassium arsenate) of 0.246.

In the case of CARS2 (UniProt Q9HA77), the thermal stability z-score (lipoamide; [1]) is reported as -0.273, the thermal stability z-score (lipoamide; arsenate co-treatment: none) is reported as -0.517 and the thermal stability z-score (potassium arsenate) is reported as -1.39.

CAMK2G (UniProt Q13555) was tested, and the thermal stability z-score (lipoamide; [1]) was -0.504, the thermal stability z-score (lipoamide; arsenate co-treatment: none) was -0.174 and the thermal stability z-score (potassium arsenate) was 0.174.

For NOCT (UniProt Q9UK39), the thermal stability z-score (lipoamide; [1]) was -0.088, the thermal stability z-score (lipoamide; arsenate co-treatment: none) was -0.117 and the thermal stability z-score (potassium arsenate) was 0.112.

DNAJC13 (UniProt O75165) showed a thermal stability z-score (lipoamide; [1]) of -0.118, a thermal stability z-score (lipoamide; arsenate co-treatment: none) of -0.226 and a thermal stability z-score (potassium arsenate) of 0.201.

For UQCRFS1 (UniProt P47985), the thermal stability z-score (lipoamide; [1]) was 0.00262, the thermal stability z-score (lipoamide; arsenate co-treatment: none) was 0.279 and the thermal stability z-score (potassium arsenate) was -2.17.

With RPL35A (UniProt P18077) the thermal stability z-score (lipoamide; [1]) was 0.893, the thermal stability z-score (lipoamide; arsenate co-treatment: none) was 0.484 and the thermal stability z-score (potassium arsenate) was -0.477.

In the case of SCAMP3 (UniProt O14828), the thermal stability z-score (lipoamide; [1]) is reported as 0.525, the thermal stability z-score (lipoamide; arsenate co-treatment: none) is reported as 0.319 and the thermal stability z-score (potassium arsenate) is reported as -0.277.

EEF2KMT (UniProt Q96G04) gave a thermal stability z-score (lipoamide; [1]) of 0.0521, a thermal stability z-score (lipoamide; arsenate co-treatment: none) of 0.046 and a thermal stability z-score (potassium arsenate) of 0.0729.

Target KIAA1143 (UniProt Q96AT1) has a thermal stability z-score (lipoamide; [1]) of -0.286, a thermal stability z-score (lipoamide; arsenate co-treatment: none) of 0.26 and a thermal stability z-score (potassium arsenate) of -0.385.

SNAP47 (UniProt Q5SQN1) was tested, and the thermal stability z-score (lipoamide; [1]) was -0.303, the thermal stability z-score (lipoamide; arsenate co-treatment: none) was -0.252 and the thermal stability z-score (potassium arsenate) was -0.104.

With TUBGCP3 (UniProt Q96CW5) the thermal stability z-score (lipoamide; [1]) was 0.238, the thermal stability z-score (lipoamide; arsenate co-treatment: none) was 0.127 and the thermal stability z-score (potassium arsenate) was 0.123.

For CLASRP (UniProt Q8N2M8), the thermal stability z-score (lipoamide; [1]) was -0.693, the thermal stability z-score (lipoamide; arsenate co-treatment: none) was -0.133 and the thermal stability z-score (potassium arsenate) was 0.14.

ATPAF2 (UniProt Q8N5M1) was tested, and the thermal stability z-score (lipoamide; [1]) was -0.263, the thermal stability z-score (lipoamide; arsenate co-treatment: none) was -0.0435 and the thermal stability z-score (potassium arsenate) was -0.318.

CEBPZOS (UniProt A8MTT3) gave a thermal stability z-score (lipoamide; [1]) of 0.351, a thermal stability z-score (lipoamide; arsenate co-treatment: none) of 0.365 and a thermal stability z-score (potassium arsenate) of 0.526.

PA2G4 (UniProt Q9UQ80) gave a thermal stability z-score (lipoamide; [1]) of 0.127, a thermal stability z-score (lipoamide; arsenate co-treatment: none) of 0.183 and a thermal stability z-score (potassium arsenate) of 1.4.

OTULIN (UniProt Q96BN8) was tested, and the thermal stability z-score (lipoamide; [1]) was -0.269, the thermal stability z-score (lipoamide; arsenate co-treatment: none) was -0.186 and the thermal stability z-score (potassium arsenate) was -0.452.

In the case of GPT2 (UniProt Q8TD30), the thermal stability z-score (lipoamide; [1]) is reported as 0.342, the thermal stability z-score (lipoamide; arsenate co-treatment: none) is reported as 0.427 and the thermal stability z-score (potassium arsenate) is reported as -0.153.

In the case of SEC11A (UniProt P67812), the thermal stability z-score (lipoamide; [1]) is reported as -2.78, the thermal stability z-score (lipoamide; arsenate co-treatment: none) is reported as -1.58 and the thermal stability z-score (potassium arsenate) is reported as 0.475.

COTL1 (UniProt Q14019) was tested, and the thermal stability z-score (lipoamide; [1]) was 0.575, the thermal stability z-score (lipoamide; arsenate co-treatment: none) was 1.02 and the thermal stability z-score (potassium arsenate) was 0.699.

Work on TMEM189 (UniProt A5PLL7) yielded a thermal stability z-score (lipoamide; [1]) of -0.772, a thermal stability z-score (lipoamide; arsenate co-treatment: none) of -0.595 and a thermal stability z-score (potassium arsenate) of -0.167.

In the case of MEAF6 (UniProt Q9HAF1), the thermal stability z-score (lipoamide; [1]) is reported as 0.687, the thermal stability z-score (lipoamide; arsenate co-treatment: none) is reported as -0.0341 and the thermal stability z-score (potassium arsenate) is reported as -0.821.

With LYN (UniProt P07948) the thermal stability z-score (lipoamide; [1]) was 0.264, the thermal stability z-score (lipoamide; arsenate co-treatment: none) was 0.362 and the thermal stability z-score (potassium arsenate) was -0.89.

For SNRPB2 (UniProt P08579), the thermal stability z-score (lipoamide; [1]) was 0.953, the thermal stability z-score (lipoamide; arsenate co-treatment: none) was 0.704 and the thermal stability z-score (potassium arsenate) was -0.319.

For HAUS8 (UniProt Q9BT25), the thermal stability z-score (lipoamide; [1]) was 0.268, the thermal stability z-score (lipoamide; arsenate co-treatment: none) was 0.632 and the thermal stability z-score (potassium arsenate) was 1.71.

In the case of COL5A2 (UniProt P05997), the thermal stability z-score (lipoamide; [1]) is reported as -3.8, the thermal stability z-score (lipoamide; arsenate co-treatment: none) is reported as -3.3 and the thermal stability z-score (potassium arsenate) is reported as 1.12.

In the case of ARID2 (UniProt Q68CP9), the thermal stability z-score (lipoamide; [1]) is reported as 0.136, the thermal stability z-score (lipoamide; arsenate co-treatment: none) is reported as 0.254 and the thermal stability z-score (potassium arsenate) is reported as -0.234.

MPRIP (UniProt Q6WCQ1) gave a thermal stability z-score (lipoamide; [1]) of 0.435, a thermal stability z-score (lipoamide; arsenate co-treatment: none) of 0.401 and a thermal stability z-score (potassium arsenate) of 0.452.

For MTHFD1L (UniProt Q6UB35), the thermal stability z-score (lipoamide; [1]) was -0.786, the thermal stability z-score (lipoamide; arsenate co-treatment: none) was -0.399 and the thermal stability z-score (potassium arsenate) was -0.123.

FAM3C (UniProt Q92520) gave a thermal stability z-score (lipoamide; [1]) of -1.06, a thermal stability z-score (lipoamide; arsenate co-treatment: none) of -0.89 and a thermal stability z-score (potassium arsenate) of 0.805.

RALB (UniProt P11234) gave a thermal stability z-score (lipoamide; [1]) of 0.25, a thermal stability z-score (lipoamide; arsenate co-treatment: none) of -0.129 and a thermal stability z-score (potassium arsenate) of 0.0205.

With TXNDC17 (UniProt Q9BRA2) the thermal stability z-score (lipoamide; [1]) was 0.493, the thermal stability z-score (lipoamide; arsenate co-treatment: none) was 0.408 and the thermal stability z-score (potassium arsenate) was 0.728.

NDUFB8 (UniProt O95169) showed a thermal stability z-score (lipoamide; [1]) of 0.714, a thermal stability z-score (lipoamide; arsenate co-treatment: none) of 1.42 and a thermal stability z-score (potassium arsenate) of 0.119.

ALKBH1 (UniProt Q13686) showed a thermal stability z-score (lipoamide; [1]) of 0.0966, a thermal stability z-score (lipoamide; arsenate co-treatment: none) of 0.171 and a thermal stability z-score (potassium arsenate) of 0.295.
